Read-outs that look alike come from different tables or passages of the source.
What was measured:
[1] = insulin in solution, even when refrigerated; cited from earlier work
blood glucose [2] = test system: blood glucose
Experimental: Diabetes mellitis is induced in rats weighing approximately 300 g by giving each a 75 mg/kg body weight intravenous injection of streptozotocin. Ten rats which are observed to show consistently high blood glucose levels, polyuria and polydipsia and must be maintained on subcutaneous injections of porcine insulin are selected for this experiment.
The remaining six diabetic rats are arbitrarily assigned to three groups of two animals. […] The animals of the second and third groups receive subcutaneous injections of 0.25 mg (6.5 I.U.) and 0.125 mg (3.25 I.U.), respectively, of porcine insulin. Blood glucose measurements are made on all animals immediately before dosing and at intervals thereafter. The animal groups are crossed over twice at one week intervals, so that all of the animals receive each of the insulin treatments.

blood glucose [3] = assay: Blood glucose in normal rats, Table 2 (Example 4); assay type: in vivo, rat; details: 1 ml/500 g by gavage
Experimental: Doses of the resulting suspension, which contain no insulin within the microspheres, are referred to as "microspheres with external insulin". Dosages of the 2.5 mg/ml solution of porcine insulin alone are referred to as "raw insulin".
Twelve male white rats, each weighing approximately 500 g and havinng a normal blood glucose level, are arbitrarily assigned to two groups of three animals and a third group of six animals. The three animals of group A are administered the insulin filled microspheres by gavage and the three animals of group B are similarly administered the microspheres with external insulin. The six animals of group C similarly receive the raw insulin. All dosages are 1 ml/500 g of body weight and all animals are tested for blood glucose immediately before dosage and at intervals thereafter.

blood glucose [4] = assay: Blood glucose in normal rats, Table 1 (Example 2c); assay type: in vivo, rat; details: Group Four
Experimental: The Group Two rats have between 1.5 and 1.7 ml of the suspension similarly administered. The rats of Group Three receive 1.0 ml of distilled water similarly administered. The rats of Group Four similarly receive 25.0 mg of porcine insulin in 1.0 ml of distilled water. Both before and during the experiment, all animals are permitted free access to water and their normal feed. Blood glucose levels are measured on samples drawn from the tail at specific intervals after treatment and group averages are recorded in Table 1 as milligrams of glucose per deciliter of blood (mg/dl).

blood glucose [5] = details: oral, far larger dosages per unit of body weight, unprotected, laboratory animals and humans; cited from earlier work
coagulation time = details: oral, far larger doses per unit of body weight, unprotected, laboratory animals and humans; cited from earlier work
[6] = test system: Time to coagulation (fibrin clot); assay: Activated Partial Thromboplastin Time (APTT) test, Table 6 (Example 8b); assay type: in vivo, rat
Experimental: Seven male white rats, each weighing approximately 600 g, are deprived of food for 12 hours before the start of the experiment. Rat #1 receives no treatment. Rat #2 receives an intravenous injection of 250 mg of heparin in one ml of distilled water. […] The effect of heparin is determined using the Activated Partial Thromboplastin Time (APTT) test. This test measures the time necessary for a sample of […] taken from the tail vein to form a fibrin clot.

Substance: insulin
- degradation in solution [1]: degrade within a few days

Substance: porcine insulin
- % Decrease from Baseline Blood Glucose (blood glucose [2]; 0.5 hrs, 0.125 mg SC): 5%
- % Decrease from Baseline Blood Glucose (blood glucose [2]; 0.5 hrs, 0.25 mg SC): 28%
- % Decrease from Baseline Blood Glucose (blood glucose [2]; 1 hrs, 0.125 mg SC): 17%
- % Decrease from Baseline Blood Glucose (blood glucose [2]; 1 hrs, 0.25 mg SC): 55%
- % Decrease from Baseline Blood Glucose (blood glucose [2]; 1.5 hrs, 0.125 mg SC): 27%
- % Decrease from Baseline Blood Glucose (blood glucose [2]; 1.5 hrs, 0.25 mg SC): 72%
- % Decrease from Baseline Blood Glucose (blood glucose [2]; 2 hrs, 0.125 mg SC): 45%
- % Decrease from Baseline Blood Glucose (blood glucose [2]; 2 hrs, 0.25 mg SC): 77%
- % Decrease from Baseline Blood Glucose (blood glucose [2]; 3 hrs, 0.125 mg SC): 47%
- % Decrease from Baseline Blood Glucose (blood glucose [2]; 3 hrs, 0.25 mg SC): 84%
- % Decrease from Baseline Blood Glucose (blood glucose [2]; 4 hrs, 0.125 mg SC): 29%
- % Decrease from Baseline Blood Glucose (blood glucose [2]; 4 hrs, 0.25 mg SC): 79%
- % Decrease from Baseline Blood Glucose (blood glucose [2]; 6 hrs, 0.125 mg SC): 8%
- % Decrease from Baseline Blood Glucose (blood glucose [2]; 6 hrs, 0.25 mg SC): 34%
- % Decrease from Baseline Blood Glucose (blood glucose [2]; 8 hrs, 0.125 mg SC): -8%
- % Decrease from Baseline Blood Glucose (blood glucose [2]; 8 hrs, 0.25 mg SC): 4%
- % Decrease from Baseline Blood Glucose (blood glucose [2]; 12 hrs, 0.125 mg SC): -8%
- % Decrease from Baseline Blood Glucose (blood glucose [2]; 12 hrs, 0.25 mg SC): 3%
- % Decrease from Baseline Blood Glucose (blood glucose [2]; 24 hrs, 0.125 mg SC): -8%
- % Decrease from Baseline Blood Glucose (blood glucose [2]; 24 hrs, 0.25 mg SC): -7%
- % Decrease from Baseline Blood Glucose (blood glucose [2]; 48 hrs, 0.125 mg SC): -8%
- % Decrease from Baseline Blood Glucose (blood glucose [2]; 48 hrs, 0.25 mg SC): -5%
- Blood Glucose (blood glucose [3]; 0 hrs): 92.7 mg/dL
- effect on blood glucose levels (blood glucose [3]): no significant effect
- Blood Glucose (blood glucose [3]; 1 hrs): 98.2 mg/dL
- Blood Glucose (blood glucose [3]; 2 hrs): 95.8 mg/dL
- Blood Glucose (blood glucose [3]; 3 hrs): 86.2 mg/dL
- Blood Glucose (blood glucose [3]; 4 hrs): 91 mg/dL
- Blood Glucose (blood glucose [3]; 6 hrs): 89.8 mg/dL
- Blood Glucose (blood glucose [3]; 8 hrs): 91 mg/dL
- Blood Glucose (blood glucose [3]; 12 hrs): 92 mg/dL
- Blood Glucose (blood glucose [3]; 24 hrs): 92 mg/dL
- Blood Glucose (blood glucose [3]; .5 hrs): 95.5 mg/dL
- Ave. Blood Glucose (blood glucose [4]; 30 min, 25.0 mg by gavage): 120 mg/dL
- Ave. Blood Glucose (blood glucose [4]; 1 hr, 25.0 mg by gavage): 120 mg/dL
- Ave. Blood Glucose (blood glucose [4]; 1.5 hr, 25.0 mg by gavage): 124 mg/dL
- Ave. Blood Glucose (blood glucose [4]; 2 hr, 25.0 mg by gavage): 120 mg/dL
- Ave. Blood Glucose (blood glucose [4]; 3 hr, 25.0 mg by gavage): 116 mg/dL
- Ave. Blood Glucose (blood glucose [4]; 4 hr, 25.0 mg by gavage): 111 mg/dL
- Ave. Blood Glucose (blood glucose [4]; 6 hr, 25.0 mg by gavage): 123 mg/dL
- Ave. Blood Glucose (blood glucose [4]; Predose, 25.0 mg in 1.0 ml water by gavage): 113 mg/dL
- reduction of blood glucose levels (blood glucose [5]): no detectable reduction of blood glucose levels

Substance: bovine insulin
- reduction of blood glucose levels (blood glucose [5]): no detectable reduction of blood glucose levels

Substance: heparin
- increase in coagulation time (coagulation time): no detectable increase in coagulation time
- Time to Coagulation in the APTT Test ([6]; 1 hr, IV 250 mg): 54 s
- Time to Coagulation in the APTT Test ([6]; 2 hrs, IV 250 mg): > 300 s
- Time to Coagulation in the APTT Test ([6]; Predose, IV group, 250 mg): 25 s

Reference: patent USRE35862E, “Delivery systems for pharmacological agents encapsulated with proteinoids” (Emisphere Technologies, Inc., priority 1994, dated 1998)
